Experimental data as given in US20220313708A1, “COMBINATION PRODUCT CONTAINING LIMONOID COMPOUND AND SGLT-2 INHIBITOR” (ZHEJIANG YANGSHENGTANG INSTITUTE OF NATURAL MEDICATION CO., …, priority 2019, published 2022).

System: mouse type II diabetes model with pancreatic islet damage and obesity
Experiment: Blood glucose in mouse type II diabetes model with pancreatic islet damage and obesity (STZ + high-fat diet, Example 5, tofogliflozin)
Format: in vivo
Details: STZ + high-fat diet ICR mice; single agent 0.5 g/kg per day by gavage, two weeks; 1 h after last administration; mean ± SD
Description: In this example, a mouse model of type II diabetes with pancreatic islet damage and obesity was established by multiple modeling ICR mice with a small dose of streptozotocin (STZ), following with continuous high-fat diets (referring to literature: Zhang Jiyuan et al, Study on the effect of three plant extracts on improving glucose and lipid metabolism in type 2 diabetic mice, Food and Machinery, 2016, 32 (12): 142-147). […]
Experimental grouping: 15 male mice were randomly selected as the normal control group, and the remaining mice were subjected to a high-fat diet (high-fat diet formula: cholesterol 1%, egg yolk powder 10%, lard oil 10%, and basic feed 79%, for establishing an obesity mouse model) for consecutive 4 weeks and intraperitoneal injection of STZ at a dose of 35 mg/kg for three consecutive days. After one week, the mice were subject to 24 hours of fasting and water deprivation, their fasting blood glucose was measured, and the mice with a blood glucose level of 15 to 25 mmol/L were selected and undifferentiatedly grouped and used in the experiment, continuously subjected to the high-fat diet, 15 mice in each group, and subjected to blood sampling and detection of indicators after 2 weeks of administration. […]

## CCc1ccc(Cc2ccc3c(c2)[C@]2(OC3)O[C@H](CO)[C@@H](O)[C@H](O)[C@H]2O)cc1 [Tofogliflozin, tofogliflozin]
  Blood glucose value: 10.1 ± 2.7 mmol/L
